From patent US6015877A, “Compounds for inhibition of proteolysis” (President and Fellows of Harvard College, priority 1996, dated 2000)
Several values for one entry are separate records, joined by “and”; a condition that tells them apart may be missing. Equal values may be shown once. Entries after “also recorded” stand apart in the source; their conditions may differ. Read-outs that look alike come from different tables or passages of the source. *1 amine or outer side, *2 acyl side, *3 side chain or, on linkers, in order; H or OH if unused. Where a SMILES comes first, the peptide text is derived from it. Where no end group is shown, it is not given here. [ ]: non-standard residue; d: D form. The star is where a group is joined. Farnesyl = CC(C)=CCC/C(C)=C/CC/C(C)=C/C*; CO = O=C([*:1])[*:2]

Tests used:
[1] = tested on: isoprenylated protein endoprotease; assay: Inhibition of the solubilized / partially purified enzyme by non-halomethyl ketone inhibitors; assay type: biochemical, bovine
[2] = tested on: isoprenylated protein endoprotease; assay: Inhibition of the isoprenylated protein endoprotease by halomethyl ketones (preincubation, 20-fold dilution, Kitz-Wilson); assay type: biochemical, bovine; details: for enzyme activity (%): diluted 20-fold, control 100; for inhibition / inactivation of the endoprotease (in words): solubilized endoprotease
Experimental: A typical procedure of inhibition is given here to illustrate the details of this procedure. A CHAPSO-solubilized protein preparation (2.5 mg/mL) or a partially […] protein preparation (0.17 mg/mL) was incubated with chloromethyl ketone inhibitors at 37° C. for 30 minutes. Aliquots were removed at timed intervals and diluted with assay buffer E for the solubilized preparation of with assay buffer D for the partially purified protein preparation in 20-fold. The final protein and substrate concentrations were 0.12 mg/mL (or 8.5 μg of partially purified protein preparation per milliliter) and 2.0 μM, respectively, except as otherwise noted; the residual enzyme activity was assayed as described above. TPCK and BFC-CMK were characterized by kinetic measurements. The bimolecular rate constant Kinh /K1 and pseudo-first-order kinetic rate constant Kinh were obtained using the Kitz-Wilson method (Kitz & Wilson, 1962). According to Kitz-Wilson method, the irreversible modification of an enzyme by an active-site directed inhibitor is given by [drawing 9] where K1 =[E]·[I]/[E·I] and -d([E]+[E·I])/dt=Kinh [E·I]. [I] and [E] are inhibitor and enzyme concentrations at a certain time, respectively. Under conditions here [I]>>[Eo ], which is the enzyme concentration at time zero, [I] is constant. Under conditions where the enzyme-inhibitor solution is extensively diluted before the assay, a simplified equation 2 can be obtained as follows: […]
To further establish the specificity of the inactivation process, several commercially available haloketones were studies as putative inactivators of the endoprotease. The structures of these analogs are shown and their activities are shown in Table V. In these studies, the solubilized protein material was preincubated with a chloromethyl ketone inhibitor at 284 μM (unless otherwise noted) for 30 minutes; then 2.5-μL aliquots of the incubated solution were taken and diluted 20-fold for assay of the residual enzyme activity. […] Save for the dipeptide derivatives (ZGGFCMK and ZAPFCMK) derived from TPCK, the other halomethyl ketones tested are virtually inert.
FIG. 16(A) Time-dependent inhibition. 16B Kitz-Wilson plot (the upper panel) for the inhibition of the isoprenylated protein endoprotease by TPCK. The inhibition studies were carried out at 37° C. using the solubilized endoprotease preparation. Aliquote of the inhibitor-enzyme solution were taken at interval times and diluted by a factor of 20, and the enzyme activity was assayed as described in Methods. (B) (the lower panel) the concentration-dependent inhibition of the endoprotease by TPCK. The inhibition studies were carried out at 37° C. The crude CHAPSO-solubilized endoprotease preparations (0.12 mg/mL) were preincubated for 60 min in 50 μL of buffer E in the presence of 284 μM TPCK or TLCK with 6% DMSO and 2% 2-propanol. After the incubation, the reaction solution was diluted by a factor of 20, and the remaining enzyme activity of the inhibitor-enzyme solution was assayed as described in Methods. Data were represented in mean from duplicate runs.

[3] = tested on: membrane-bound isoprenylated protein endoprotease; details: cited from earlier work
[4] = tested on: protease of bovine liver microsomal membranes (isoprenylated protein endoprotease); assay: Proteolysis of N-[3H]acetyl isoprenylated peptide substrates by calf liver microsomal membranes (N-[3H]-AFC formation, HPLC); details: for activity as substrate (Table 1, words): 10 mM, prolonged incubation time (16 hours), detection limit 1.13 pmol/min/mg
[5] = target: T1, cysteine protease apopain (Homo sapiens, UniProt P42574); details: cited from earlier work
T1 sequence (P42574 29-175 limits assumed): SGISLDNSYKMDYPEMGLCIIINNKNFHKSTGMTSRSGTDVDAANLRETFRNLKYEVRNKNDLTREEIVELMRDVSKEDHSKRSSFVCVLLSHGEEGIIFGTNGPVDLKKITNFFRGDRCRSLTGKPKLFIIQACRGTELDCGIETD
T1 sequence (P42574 176-277 limits assumed): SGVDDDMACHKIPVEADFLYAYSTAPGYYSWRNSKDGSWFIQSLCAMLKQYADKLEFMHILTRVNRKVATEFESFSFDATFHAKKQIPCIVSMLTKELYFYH

[6] = target: T2, cysteine protease ICE (interleukin-1β converting enzyme) (Homo sapiens, UniProt P29466); details: cited from earlier work
T2 sequence (P29466 120-297 limits assumed): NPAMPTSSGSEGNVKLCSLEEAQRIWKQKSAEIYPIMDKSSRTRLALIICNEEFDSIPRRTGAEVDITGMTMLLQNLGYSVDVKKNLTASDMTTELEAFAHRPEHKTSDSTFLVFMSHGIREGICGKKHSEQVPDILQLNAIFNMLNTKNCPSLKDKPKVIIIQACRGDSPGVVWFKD
T2 sequence (P29466 317-404 limits assumed): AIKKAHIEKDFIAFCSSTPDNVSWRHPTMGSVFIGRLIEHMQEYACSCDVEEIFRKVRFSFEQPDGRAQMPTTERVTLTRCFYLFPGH

[7] = 284 μM inhibitor, solubilized protein preincubated 30 minutes
[8] = Kitz-Wilson plot using the partially purified enzyme preparation
[9] = calf liver microsomal membranes
[10] = Table 1, same enzyme preparation, average of two determinations ±S.D.

Compound: O[C@H](CS)[C@H](O)CS (racemic) [DTT, Dithiothreitol]
- effect on the solubilized enzyme's activity (in words) ([1]; 1-5 mM): Neither DTT (1-5 mM) nor glycerol (20%) affects the enzyme's activity
- enzyme activity (%) detergent extract ([1]; inhibitor 5 mM, control 100): 108 ± 8%

Compound: CC(C)=CCC/C(C)=C/CC/C(C)=C/CSC[C@H](NC(=O)OC(C)(C)C)C(=O)CCl (stereo in doubt) [BFCCMK, N-Boc-S-all-trans-Farnesyl-L-cysteine Chloromethyl Ketone]
- enzyme activity (%) [2, 7]: 27 ± 2%
- Kinh (s^-1) [2, 8]: (5.9 ± 0.4) × 10^-3 s^-1
- Kinh /K1 [2, 8]: 19.4 M⁻¹ s⁻¹ and 19.4 ± 1 M⁻¹ s⁻¹
- Ki ([2]; Kitz-Wilson plot using the partially purified enzyme preparation, read-out: K1): 30 µM and ~30 µM
- increase of the second-order rate constant ([2]; compared with TPCK): 15 fold
- inhibition / inactivation of the endoprotease (in words) [2]: good inhibitors; also recorded: quite a potent inactivator of the endoprotease; also recorded: most potent inactivator of the endoprotease; also recorded: much more potent inactivator of the endoprotease than TPCK

Compound: CC(C)=CCC/C(C)=C/CC/C(C)=C/CSC[C@@H](C=O)NC(=O)OC(C)(C)C (stereo in doubt) [N-Boc-S-all-trans-farnesyl-L-cysteine Aldehyde]
- inhibition of the enzyme (in words) ([3]; Ma et al., 1993): fairly potent competitive inhibitor

Compound: CC(=O)N[C@@H](CSC/C=C(\C)CC/C=C(\C)CCC=C(C)C)C(N)=O [AFC amide]
- substrate activity (in words) [4, 9]: not a substrate for the enzyme

Compound: N=C(N)c1ccc(CS(=O)(=O)F)cc1 [APMSF, 4-(amidinophe-nyl)methanesulfonyl fluoride]
- inhibition of the endoprotease (in words) [3]: not inhibited

Compound: CC(C)C[C@H](NC(=O)[C@@H](NC(=O)N[C@@H](Cc1ccccc1)C(=O)O)[C@@H]1CCN=C(N)N1)C(=O)N[C@H](C=O)Cc1ccccc1 [Chymostatin]
- inhibition of the endoprotease (in words) ([1]; 0.33 mM): not inhibited
- enzyme activity (%) detergent extract ([1]; inhibitor 0.33 mM, control 100): 104 ± 8%
- enzyme activity (%) partially purified ([1]; inhibitor 0.33 mM, control 100): 99 ± 1%
- enzyme activity (%) partially purified ([1]; inhibitor 0.33 mM, control 100, listed as chymostatin): not inhibited

Compound: CCN1C(=O)C=CC1=O [N-ethylma-leimide]
- inhibition of apopain (in words) [5]: inhibited

Compound: O=C(O)c1cc[c]([Hg][Cl])cc1 [PCMB, p-chloromercuribenzoate]
- inhibition of ICE (in words) [6]: inactivated
- inhibition of the endoprotease ([3]; 0.5 mM, membrane-bound enzyme): 41%
- partially purified enzyme activity inhibited ([1]; 5 μM, partially purified enzyme): 67%
- enzyme activity (%) detergent extract ([1]; 0.5 mM PCMB, then +5 mM DTT (regenerated activity)): 44 ± 4% and 44%
- regeneration of the inhibited activity after extensive dialysis and dilution (in words) ([1]; detergent extract inhibited by 0.5 mM PCMB): no regeneration of the inhibited activity was observed
- enzyme activity (%) partially purified ([1]; inhibitor 5 μm, control 100): 33 ± 3%

Compound: O=S(=O)(F)Cc1ccccc1 [PMSF, phenylmethanesulfonyl fluoride]
- inhibition of the endoprotease (in words) ([1]; 1 mM): not inhibited
- enzyme activity (%) detergent extract ([1]; inhibitor 1 mM, control 100): 93 ± 3%

Compound: CC(C)[C@H](NC(=O)[C@H](CCCNC(=N)N)NC(=O)N[C@@H](Cc1ccccc1)C(=O)O)C(=O)N[C@H](C=O)CCCNC(=N)N [antipain] ({Phe-CO}-Arg-Val-Arg-aldehyde)
- inhibition of ICE (in words) [6]: insensitive

Compound: OCC(O)CO [glycerol]
- effect on the solubilized enzyme's activity (in words) ([1]; 20%): Neither DTT (1-5 mM) nor glycerol (20%) affects the enzyme's activity

Compound: CC(=O)N[C@@H](CC(C)C)C(=O)N[C@@H](CC(C)C)C(=O)N[C@H](C=O)CCCNC(=N)N [leupeptin]
- inhibition of the endoprotease (in words) ([3]; 1.0 μM): not inhibited

Compound: N-Ac-S-all-trans-farnesyl-D-Cys-L-Val-L-Ile [AFC--Val--Ile (6)]
- activity as substrate (Table 1, words) [4]: inactive

Compound: N-Benzyloxycarbonylglycylglycyl-S-all-trans-farnesyl-L-cysteine Chloromethyl Ketone [ZGGFCCMK]
- enzyme activity (%) [2, 7]: 44 ± 1%
- inhibition / inactivation of the endoprotease (in words) [2]: good inhibitors

Compound: N-[^3 H-Acetyl-S-all-trans-geranylgeranyl-L-Cys-L-Val-L-ile [AGGC--Val--Ile (2)]
- Km [4, 10]: 4.01 ± 0.4 µM
- Vmax [4, 10]: 26.20 ± 0.97 pmol/min/mg
- Km [4, 9]: 14.6 µM
- Vmax [4, 9]: 19.35 pmol/min/mg
- substrate activity (in words) [4, 9]: good substrates

Compound: N-[^3 H]-Acetyl-L-Cys-L-Val-L-Ile [Cys--Val--Ile (4)]
- activity as substrate (Table 1, words) [4]: inactive
- substrate activity (in words) [4, 9]: Neither analog was measurably processed

Compound: N-[^3 H]-Acetyl-S-all-trans-geranylgeranyl-D-cys-L-Val-L-Ile [AGGC--Val--Ile (2) D--L--L]
- activity as substrate (Table 1, words) [4]: inactive
- substrate activity (in words) [4, 9]: no measurable protease activity

Compound: N-[^3 H]-Acetyl-S-thio-t-butyl-L-Cys-L-Val-L-Ile [t-butylthio-Cys--Val--Ile (5)]
- activity as substrate (Table 1, words) [4]: inactive
- substrate activity (in words) [4, 9]: Neither analog was measurably processed

Compound: N-[^3 H]-acetyl-S-all-trans-farnesyl-L-Cys-L-Val-D-Ile [AFC--Val--Ile (8)]
- activity as substrate (Table 1, words) [4]: inactive
- substrate activity (in words) [4, 9]: did not have substrate activity

Compound: N-[^3 H]-acetyl-S-all-trans-farnesyl-L-Cys-L-Val-L-Ile-D-Met ({(3H)‑acetyl}-C(Farnesyl)VI[dM]) [AFC--Val--Ile--Met (10)]
- activity as substrate (Table 1, words) [4]: weakly active (detectable activity is observed under prolonged incubation periods, but the activity is <5% that observed with AFC-V-I-S)
- substrate activity (in words) [4, 9]: processed to some extent

Compound: N-acetyl-S-all-trans-farnesyl-D-Cys-D-Val-L-Ile [D-D-L]
- substrate activity (in words) [4, 9]: inactive

Compound: N-acetyl-S-all-trans-farnesyl-L-Cys-D-Val-L-Ile [AFC--Val--Ile (7)]
- activity as substrate (Table 1, words) [4]: inactive
- substrate activity (in words) [4, 9]: did not have substrate activity

Compound: N-acetyl-S-trans-geranyl-D-Cys-L-Val-Ile [AGC--Val--Ile (3) D--L--L]
- activity as substrate (Table 1, words) [4]: inactive
- substrate activity (in words) [4, 9]: no measurable protease activity

Compound: N-acetyl-S-trans-geranyl-L-Cys-L-Val-L-Ile [AGC--Val--Ile (3)]
- Km [4, 10]: 14.6 ± 2.14 µM
- Vmax [4, 10]: 19.35 ± 1.12 pmol/min/mg
- substrate activity (in words) [4, 9]: good substrates

Compound: Nα-tosyl-L-lysine chloromethyl ketone [TLCK]
- inhibition of apopain (in words) [5]: not
- enzyme activity (%) ([2]; 1000 μM inhibitor, solubilized protein preincubated): 94 ± 15%
- inhibition / inactivation of the endoprotease (in words) [2]: did not inhibit the enzyme activity; also recorded: does not inhibit the enzyme activity

Compound: aprotinin
- inhibition of the endoprotease (in words) ([3]; 0.6 μM): not inhibited

Compound: bis(p-nitro-phenyl)phosphate [BNPP]
- inhibition of the endoprotease (in words) ([1]; 1 mM): not inhibited
- enzyme activity (%) detergent extract ([1]; inhibitor 1 mM, control 100): 100 ± 8%

Compound: β-(2-naphthyl)-L-alanine chloromethyl ketone [2-Nal-Ala-CMK]
- enzyme activity (%) [2, 7]: 53 ± 1%
- inhibition / inactivation of the endoprotease (in words) [2]: inhibit the endoprotease well
